COc1cc(Cl)c(OC)cc1N
Settings	solubility (mole fraction)
in ethanol, 279.35 K	0.00274
in ethanol, 282.65 K	0.00327
in ethanol, 286.45 K	0.00386
in ethanol, 289.55 K	0.00447
in ethanol, 292.15 K	0.00497
in ethanol, 295.55 K	0.00579
in ethanol, 299.45 K	0.00695
in ethanol, 303.05 K	0.00821
in ethanol, 305.85 K	0.00938
in ethanol, 310.25 K	0.0115
in ethanol, 313.95 K	0.0137
in ethanol, 317.65 K	0.0164
in ethanol, 321.55 K	0.0201
in ethanol, 325.05 K	0.024
in ethanol, 328.65 K	0.0289
in ethanol, 331.55 K	0.0344
in ethanol, 335.25 K	0.0416
in m-xylene, 277.35 K	0.00495
in m-xylene, 281.85 K	0.00615
in m-xylene, 286.05 K	0.00739
in m-xylene, 289.95 K	0.00877
in m-xylene, 292.85 K	0.0103
in m-xylene, 296.25 K	0.012
in m-xylene, 299.35 K	0.0139
in m-xylene, 302.35 K	0.016
in m-xylene, 305.55 K	0.0186
in m-xylene, 309.25 K	0.0219
in m-xylene, 312.75 K	0.0262
in m-xylene, 316.95 K	0.0318
in m-xylene, 321.25 K	0.0386
in m-xylene, 325.05 K	0.0466
in m-xylene, 328.65 K	0.0561
in m-xylene, 332.35 K	0.0669
in m-xylene, 335.65 K	0.0791
in methanol, 278.05 K	0.00282
in methanol, 282.45 K	0.00342
in methanol, 285.85 K	0.00399
in methanol, 289.45 K	0.00465
in methanol, 292.75 K	0.0054
in methanol, 296.65 K	0.00634
in methanol, 299.85 K	0.00734
in methanol, 303.35 K	0.00852
in methanol, 306.55 K	0.0099
in methanol, 309.95 K	0.0115
in methanol, 313.45 K	0.0134
in methanol, 316.45 K	0.0156
in methanol, 319.35 K	0.0181
in methanol, 322.45 K	0.0212
in methanol, 325.45 K	0.0247
in methanol, 328.85 K	0.0289
in o-xylene, 278.25 K	0.0058
in o-xylene, 281.85 K	0.00699
in o-xylene, 285.55 K	0.00831
in o-xylene, 289.15 K	0.00989
in o-xylene, 292.75 K	0.0117
in o-xylene, 296.05 K	0.0136
in o-xylene, 299.45 K	0.0158
in o-xylene, 303.25 K	0.0184
in o-xylene, 307.05 K	0.0214
in o-xylene, 310.35 K	0.0252
in o-xylene, 313.65 K	0.0298
in o-xylene, 317.55 K	0.0358
in o-xylene, 321.85 K	0.0443
in o-xylene, 326.25 K	0.0549
in o-xylene, 330.95 K	0.0677
in o-xylene, 335.05 K	0.0816
in p-xylene, 288.55 K	0.00855
in p-xylene, 291.65 K	0.00985
in p-xylene, 294.95 K	0.0115
in p-xylene, 298.45 K	0.0134
in p-xylene, 302.25 K	0.0158
in p-xylene, 306.05 K	0.0186
in p-xylene, 309.65 K	0.022
in p-xylene, 313.55 K	0.026
in p-xylene, 317.65 K	0.031
in p-xylene, 321.25 K	0.0371
in p-xylene, 325.25 K	0.0447
in p-xylene, 329.55 K	0.0539
in p-xylene, 334.25 K	0.0651
in toluene, 277.65 K	0.0065
in toluene, 281.95 K	0.00831
in toluene, 286.05 K	0.0101
in toluene, 290.05 K	0.0126
in toluene, 293.35 K	0.0146
in toluene, 296.45 K	0.0169
in toluene, 299.65 K	0.0194
in toluene, 302.75 K	0.0224
in toluene, 306.25 K	0.0263
in toluene, 309.95 K	0.0312
in toluene, 313.75 K	0.0373
in toluene, 317.65 K	0.0447
in toluene, 321.75 K	0.0536
in toluene, 325.45 K	0.0641
in toluene, 328.95 K	0.0761
in toluene, 332.25 K	0.0894
in toluene, 335.35 K	0.104

COc1cc([N+](=O)[O-])c(OC)cc1Cl
Settings	solubility (mole fraction)
in ethanol, 276.95 K	0.00042
in ethanol, 281.05 K	0.000522
in ethanol, 285.25 K	0.000644
in ethanol, 288.25 K	0.000757
in ethanol, 291.45 K	0.000892
in ethanol, 295.75 K	0.00109
in ethanol, 300.15 K	0.00135
in ethanol, 305.55 K	0.00172
in ethanol, 310.45 K	0.00219
in ethanol, 314.85 K	0.00274
in ethanol, 319.65 K	0.0034
in ethanol, 323.65 K	0.00409
in ethanol, 327.25 K	0.0048
in ethanol, 330.25 K	0.00558
in ethanol, 333.35 K	0.00649
in ethanol, 336.65 K	0.00764
in ethanol, 340.45 K	0.00921
in m-xylene, 277.05 K	0.00728
in m-xylene, 279.95 K	0.00788
in m-xylene, 283.15 K	0.00872
in m-xylene, 286.15 K	0.00994
in m-xylene, 290.05 K	0.0118
in m-xylene, 295.35 K	0.0146
in m-xylene, 300.75 K	0.0178
in m-xylene, 305.05 K	0.0209
in m-xylene, 308.85 K	0.024
in m-xylene, 312.15 K	0.0272
in m-xylene, 315.45 K	0.0305
in m-xylene, 318.55 K	0.0341
in m-xylene, 321.75 K	0.0382
in m-xylene, 325.05 K	0.0432
in m-xylene, 328.45 K	0.049
in m-xylene, 332.05 K	0.0561
in m-xylene, 335.35 K	0.0645
in m-xylene, 338.95 K	0.0747
in methanol, 279.35 K	0.000449
in methanol, 282.75 K	0.000517
in methanol, 285.55 K	0.000598
in methanol, 288.85 K	0.000716
in methanol, 293.45 K	0.000895
in methanol, 297.55 K	0.00109
in methanol, 301.75 K	0.00131
in methanol, 305.85 K	0.00156
in methanol, 309.55 K	0.00187
in methanol, 313.25 K	0.00223
in methanol, 316.85 K	0.00266
in methanol, 320.75 K	0.00318
in methanol, 324.85 K	0.00383
in methanol, 329.05 K	0.00464
in o-xylene, 277.75 K	0.00864
in o-xylene, 280.45 K	0.00956
in o-xylene, 283.55 K	0.0107
in o-xylene, 287.05 K	0.0123
in o-xylene, 291.45 K	0.0145
in o-xylene, 296.25 K	0.0174
in o-xylene, 301.25 K	0.0209
in o-xylene, 305.65 K	0.0245
in o-xylene, 309.45 K	0.0283
in o-xylene, 313.25 K	0.0323
in o-xylene, 316.85 K	0.0367
in o-xylene, 320.55 K	0.0418
in o-xylene, 323.95 K	0.0476
in o-xylene, 327.55 K	0.0544
in o-xylene, 331.35 K	0.0624
in o-xylene, 335.25 K	0.0719
in o-xylene, 339.35 K	0.0831
in p-xylene, 289.55 K	0.0126
in p-xylene, 293.65 K	0.0145
in p-xylene, 297.55 K	0.0168
in p-xylene, 301.95 K	0.0198
in p-xylene, 306.15 K	0.023
in p-xylene, 310.25 K	0.0266
in p-xylene, 313.85 K	0.0304
in p-xylene, 317.55 K	0.0347
in p-xylene, 321.15 K	0.0396
in p-xylene, 324.65 K	0.0454
in p-xylene, 328.45 K	0.0522
in p-xylene, 332.35 K	0.0604
in p-xylene, 336.65 K	0.07
in toluene, 277.45 K	0.00969
in toluene, 280.55 K	0.0107
in toluene, 283.85 K	0.0122
in toluene, 287.85 K	0.0145
in toluene, 293.05 K	0.0178
in toluene, 297.95 K	0.0211
in toluene, 301.85 K	0.0241
in toluene, 305.35 K	0.0273
in toluene, 308.75 K	0.0308
in toluene, 312.35 K	0.0347
in toluene, 315.85 K	0.0393
in toluene, 319.45 K	0.045
in toluene, 323.45 K	0.052
in toluene, 327.75 K	0.061
in toluene, 332.75 K	0.0726
in toluene, 337.35 K	0.0852

From BigSolDB 2.1
